From ChEMBL document CHEMBL5291721, “A preclinical secondary pharmacology resource illuminates target-adverse drug reaction associations of marketed drugs” (Nat Commun, 2023)

Legend:
[1] = target: T1, Progesterone receptor (Homo sapiens, UniProt P06401)
T1 sequence (P06401 whole entry): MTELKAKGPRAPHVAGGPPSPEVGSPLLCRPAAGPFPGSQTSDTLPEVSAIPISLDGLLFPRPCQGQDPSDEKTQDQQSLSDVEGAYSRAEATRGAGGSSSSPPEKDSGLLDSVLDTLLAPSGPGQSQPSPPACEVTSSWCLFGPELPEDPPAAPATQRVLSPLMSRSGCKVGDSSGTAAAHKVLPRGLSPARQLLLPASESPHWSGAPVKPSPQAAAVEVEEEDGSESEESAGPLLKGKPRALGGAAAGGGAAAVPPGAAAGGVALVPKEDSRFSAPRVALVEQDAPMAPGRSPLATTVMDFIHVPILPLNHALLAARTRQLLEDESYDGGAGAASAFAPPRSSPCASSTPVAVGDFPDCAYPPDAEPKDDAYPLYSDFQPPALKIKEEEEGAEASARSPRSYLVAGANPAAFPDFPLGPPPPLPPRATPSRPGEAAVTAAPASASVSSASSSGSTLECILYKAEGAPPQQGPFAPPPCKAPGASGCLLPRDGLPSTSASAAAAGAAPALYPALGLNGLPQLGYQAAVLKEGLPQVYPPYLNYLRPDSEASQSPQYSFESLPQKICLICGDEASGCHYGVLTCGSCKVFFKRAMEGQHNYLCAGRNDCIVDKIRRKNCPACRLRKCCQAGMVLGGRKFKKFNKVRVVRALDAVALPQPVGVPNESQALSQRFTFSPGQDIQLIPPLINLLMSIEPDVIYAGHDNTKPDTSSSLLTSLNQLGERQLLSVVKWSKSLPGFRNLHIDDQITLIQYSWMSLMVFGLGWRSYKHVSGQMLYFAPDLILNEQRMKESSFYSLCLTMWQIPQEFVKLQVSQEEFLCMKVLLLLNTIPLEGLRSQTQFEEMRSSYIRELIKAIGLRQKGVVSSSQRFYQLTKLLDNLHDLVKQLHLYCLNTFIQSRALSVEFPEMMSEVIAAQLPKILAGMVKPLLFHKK

[2] = target: T2, Estrogen receptor (Homo sapiens, UniProt P03372)
T2 sequence (P03372 whole entry): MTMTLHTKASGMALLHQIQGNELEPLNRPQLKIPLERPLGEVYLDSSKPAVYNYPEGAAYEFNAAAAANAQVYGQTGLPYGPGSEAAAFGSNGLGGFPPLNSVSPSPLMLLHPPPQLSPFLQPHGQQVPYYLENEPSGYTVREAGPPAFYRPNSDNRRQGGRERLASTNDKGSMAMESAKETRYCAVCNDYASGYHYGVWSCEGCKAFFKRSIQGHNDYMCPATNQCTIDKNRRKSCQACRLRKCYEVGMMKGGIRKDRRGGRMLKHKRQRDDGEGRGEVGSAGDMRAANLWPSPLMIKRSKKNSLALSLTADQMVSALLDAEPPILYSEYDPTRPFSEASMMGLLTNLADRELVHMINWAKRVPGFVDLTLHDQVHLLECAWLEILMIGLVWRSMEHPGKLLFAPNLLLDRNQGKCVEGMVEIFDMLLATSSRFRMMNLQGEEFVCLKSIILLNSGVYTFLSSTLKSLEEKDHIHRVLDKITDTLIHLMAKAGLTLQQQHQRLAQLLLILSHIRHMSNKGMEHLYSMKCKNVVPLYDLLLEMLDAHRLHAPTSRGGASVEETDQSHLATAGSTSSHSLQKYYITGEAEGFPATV

[3] = target: T3, Alpha-1A adrenergic receptor (Homo sapiens, UniProt P35348); type: functional, cell-based
T3 sequence (P35348 whole entry): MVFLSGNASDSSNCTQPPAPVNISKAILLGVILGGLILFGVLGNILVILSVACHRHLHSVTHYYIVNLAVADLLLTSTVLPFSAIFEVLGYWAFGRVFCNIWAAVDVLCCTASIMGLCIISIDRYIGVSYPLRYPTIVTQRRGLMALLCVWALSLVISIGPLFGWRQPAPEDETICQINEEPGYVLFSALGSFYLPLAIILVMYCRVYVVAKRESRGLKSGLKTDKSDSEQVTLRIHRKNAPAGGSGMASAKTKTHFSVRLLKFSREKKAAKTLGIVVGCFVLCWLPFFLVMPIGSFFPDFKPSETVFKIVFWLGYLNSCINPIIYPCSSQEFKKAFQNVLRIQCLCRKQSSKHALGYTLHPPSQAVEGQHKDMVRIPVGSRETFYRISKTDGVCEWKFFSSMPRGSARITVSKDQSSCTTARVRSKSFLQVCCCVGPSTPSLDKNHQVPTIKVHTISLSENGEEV

[4] = target: Prothrombin (Homo sapiens, UniProt P00734); type: functional
[5] = target: cGMP-inhibited 3',5'-cyclic phosphodiesterase 3A (Homo sapiens, UniProt Q14432); type: functional
cGMP-inhibited 3',5'-cyclic phosphodiesterase 3A, sequence (Q14432 whole entry): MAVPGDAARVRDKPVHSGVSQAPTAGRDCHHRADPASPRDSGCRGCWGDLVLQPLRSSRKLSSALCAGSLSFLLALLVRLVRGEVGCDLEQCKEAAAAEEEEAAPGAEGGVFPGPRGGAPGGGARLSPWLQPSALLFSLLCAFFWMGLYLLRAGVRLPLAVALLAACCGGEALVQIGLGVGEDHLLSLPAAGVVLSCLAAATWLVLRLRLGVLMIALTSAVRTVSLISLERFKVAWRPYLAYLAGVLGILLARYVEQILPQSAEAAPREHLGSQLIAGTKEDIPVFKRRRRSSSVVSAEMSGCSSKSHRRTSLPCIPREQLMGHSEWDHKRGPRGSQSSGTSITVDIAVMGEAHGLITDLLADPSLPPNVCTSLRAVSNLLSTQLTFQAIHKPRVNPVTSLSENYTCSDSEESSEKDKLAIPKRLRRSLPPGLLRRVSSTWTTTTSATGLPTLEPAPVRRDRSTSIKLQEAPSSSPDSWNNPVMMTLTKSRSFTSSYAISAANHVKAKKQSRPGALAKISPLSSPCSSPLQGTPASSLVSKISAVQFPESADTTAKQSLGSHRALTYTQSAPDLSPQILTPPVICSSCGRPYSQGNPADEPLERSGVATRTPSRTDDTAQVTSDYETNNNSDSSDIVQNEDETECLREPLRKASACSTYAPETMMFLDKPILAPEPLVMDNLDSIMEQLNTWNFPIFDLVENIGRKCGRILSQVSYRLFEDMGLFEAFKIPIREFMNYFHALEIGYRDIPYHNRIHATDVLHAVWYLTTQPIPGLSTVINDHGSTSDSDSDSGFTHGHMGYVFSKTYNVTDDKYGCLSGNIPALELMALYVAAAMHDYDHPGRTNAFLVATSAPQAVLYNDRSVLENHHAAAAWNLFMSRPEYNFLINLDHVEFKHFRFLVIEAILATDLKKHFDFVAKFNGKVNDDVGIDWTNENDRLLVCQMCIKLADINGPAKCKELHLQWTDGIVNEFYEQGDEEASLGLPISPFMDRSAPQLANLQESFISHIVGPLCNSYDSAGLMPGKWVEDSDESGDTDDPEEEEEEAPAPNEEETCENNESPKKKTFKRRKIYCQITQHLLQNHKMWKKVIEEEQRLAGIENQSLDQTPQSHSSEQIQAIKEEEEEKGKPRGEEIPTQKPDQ

[6] = target: T4, Thromboxane A2 receptor (Homo sapiens, UniProt P21731); type: functional, cell-based
T4 sequence (P21731 whole entry): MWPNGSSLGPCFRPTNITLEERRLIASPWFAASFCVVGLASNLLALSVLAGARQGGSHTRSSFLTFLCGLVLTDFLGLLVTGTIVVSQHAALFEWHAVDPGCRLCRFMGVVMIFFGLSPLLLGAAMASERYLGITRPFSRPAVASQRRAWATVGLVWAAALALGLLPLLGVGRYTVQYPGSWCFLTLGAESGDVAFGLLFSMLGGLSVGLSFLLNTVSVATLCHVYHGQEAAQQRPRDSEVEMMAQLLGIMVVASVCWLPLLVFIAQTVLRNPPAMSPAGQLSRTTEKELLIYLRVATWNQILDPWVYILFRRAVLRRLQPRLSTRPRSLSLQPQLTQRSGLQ

[7] = target: Beta-3 adrenergic receptor (Homo sapiens, UniProt P13945)
Beta-3 adrenergic receptor, sequence (P13945 whole entry): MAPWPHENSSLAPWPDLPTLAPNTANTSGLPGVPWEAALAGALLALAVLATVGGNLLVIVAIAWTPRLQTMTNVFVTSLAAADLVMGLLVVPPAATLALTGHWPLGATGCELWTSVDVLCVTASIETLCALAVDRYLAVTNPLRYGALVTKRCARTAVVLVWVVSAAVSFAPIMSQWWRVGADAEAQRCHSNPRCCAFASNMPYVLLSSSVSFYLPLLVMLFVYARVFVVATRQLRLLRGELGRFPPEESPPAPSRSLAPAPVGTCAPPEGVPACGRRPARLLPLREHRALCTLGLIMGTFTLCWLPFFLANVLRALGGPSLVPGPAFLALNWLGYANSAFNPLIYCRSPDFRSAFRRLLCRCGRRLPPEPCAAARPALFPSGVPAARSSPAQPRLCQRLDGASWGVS

[8] = target: 5-hydroxytryptamine receptor 2B (Homo sapiens, UniProt P41595)
5-hydroxytryptamine receptor 2B, sequence (P41595 whole entry): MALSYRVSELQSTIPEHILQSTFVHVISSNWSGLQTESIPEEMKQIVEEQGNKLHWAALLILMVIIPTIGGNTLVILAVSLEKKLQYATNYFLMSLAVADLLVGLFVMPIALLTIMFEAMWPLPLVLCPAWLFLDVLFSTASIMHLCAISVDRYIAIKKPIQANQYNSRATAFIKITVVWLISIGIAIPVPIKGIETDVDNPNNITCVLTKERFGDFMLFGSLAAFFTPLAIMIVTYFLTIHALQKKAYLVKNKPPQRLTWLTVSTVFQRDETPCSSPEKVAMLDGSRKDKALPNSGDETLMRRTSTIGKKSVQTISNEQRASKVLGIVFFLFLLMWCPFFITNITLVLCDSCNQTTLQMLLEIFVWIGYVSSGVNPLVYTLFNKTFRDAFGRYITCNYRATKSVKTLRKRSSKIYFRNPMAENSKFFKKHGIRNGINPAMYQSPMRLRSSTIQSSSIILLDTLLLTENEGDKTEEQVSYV

[9] = target: Glucagon receptor (Homo sapiens, UniProt P47871)
Glucagon receptor, sequence (P47871 whole entry): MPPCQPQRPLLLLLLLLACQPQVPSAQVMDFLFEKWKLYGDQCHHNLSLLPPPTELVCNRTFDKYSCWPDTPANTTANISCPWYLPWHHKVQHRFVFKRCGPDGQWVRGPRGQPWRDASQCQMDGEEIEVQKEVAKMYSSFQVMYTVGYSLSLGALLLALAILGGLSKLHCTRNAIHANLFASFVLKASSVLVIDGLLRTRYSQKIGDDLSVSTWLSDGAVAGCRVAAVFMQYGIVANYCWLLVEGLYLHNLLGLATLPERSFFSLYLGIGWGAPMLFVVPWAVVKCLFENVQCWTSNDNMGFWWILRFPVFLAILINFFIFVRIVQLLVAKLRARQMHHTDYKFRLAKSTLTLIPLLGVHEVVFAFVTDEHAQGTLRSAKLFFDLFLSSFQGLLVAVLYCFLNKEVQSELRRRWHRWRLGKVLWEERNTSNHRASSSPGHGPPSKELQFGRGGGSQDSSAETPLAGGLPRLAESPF

[10] = target: Neurotensin receptor type 1 (Homo sapiens, UniProt P30989)
Neurotensin receptor type 1, sequence (P30989 whole entry): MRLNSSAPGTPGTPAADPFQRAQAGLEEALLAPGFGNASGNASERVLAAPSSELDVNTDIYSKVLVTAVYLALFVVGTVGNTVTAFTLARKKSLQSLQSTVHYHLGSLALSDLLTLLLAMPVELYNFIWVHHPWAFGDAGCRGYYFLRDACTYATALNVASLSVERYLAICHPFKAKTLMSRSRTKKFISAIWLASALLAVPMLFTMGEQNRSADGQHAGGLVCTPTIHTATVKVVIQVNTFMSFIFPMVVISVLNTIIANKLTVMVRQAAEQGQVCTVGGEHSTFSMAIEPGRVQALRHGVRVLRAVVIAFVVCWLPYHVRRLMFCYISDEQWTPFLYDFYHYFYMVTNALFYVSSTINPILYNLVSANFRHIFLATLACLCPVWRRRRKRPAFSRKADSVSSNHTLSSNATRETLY
Note: assay procedure not described here.

Cc1nnc2n1-c1ccc(Cl)cc1C(c1ccccc1Cl)=NC2 [TRIAZOLAM]
AC50 [1]: > 30 µM

COc1ccc(CCNCC(O)COc2cccc(C)c2)cc1OC (stereo not drawn) [BEVANTOLOL]
AC50 [2]: > 10 µM

O=C1C(O)=C([C@H]2CC[C@H](c3ccc(Cl)cc3)CC2)C(=O)c2ccccc21 [ATOVAQUONE]
AC50 [2]: > 30 µM

CO[C@]12C[C@@H](COC(=O)c3cncc(Br)c3)CN(C)[C@@H]1Cc1cn(C)c3cccc2c13 [NICERGOLINE]
AC50 [3]: 21.8 µM | AC50 [4]: > 30 µM | AC50 [5]: > 30 µM | AC50 [6]: > 30 µM

Fc1ccc(C(c2ccccc2)(c2ccccc2F)n2ccnc2)cc1 (stereo not drawn) [FLUTRIMAZOLE]
AC50 [2]: > 30 µM

CC/C(=C(\c1ccccc1)c1ccc(OCCN(C)C)cc1)c1ccccc1 [TAMOXIFEN]
AC50 [7]: 6.61 µM | AC50 [8]: 0.896 µM

NC(=O)OCC(COC(N)=O)c1ccccc1 [FELBAMATE]
AC50 [2]: > 10 µM

THIMEROSAL
AC50 [3]: > 30 µM | AC50 [4]: > 30 µM | AC50 [5]: > 30 µM | AC50 [6]: > 30 µM

Clc1ccccc1C(c1ccccc1)(c1ccccc1)n1ccnc1 [CLOTRIMAZOLE]
AC50 [7]: 8.78 µM | AC50 [8]: > 10 µM

COc1cccc(C2(O)CCCCC2CN(C)C)c1 (stereo not drawn) [TRAMADOL]
AC50 [7]: > 30 µM | AC50 [2]: > 30 µM | AC50 [9]: > 30 µM | AC50 [8]: > 10 µM | AC50 [10]: > 30 µM | AC50 [1]: > 30 µM

Cc1c(OCC(F)(F)F)ccnc1C[S+]([O-])c1nc2ccccc2[nH]1 (stereo not drawn) [LANSOPRAZOLE]
AC50 [7]: > 30 µM | AC50 [9]: > 30 µM | AC50 [8]: > 10 µM | AC50 [10]: > 30 µM | AC50 [1]: > 30 µM
